Experimental data from patent US8008346B2, “Chemotherapeutic agents for inhibition of protein translation” (The Royal University for the Advancement of Learning/McGill …, priority 2006, dated 2011).

Tests used:
[1] = biological target: T1, eIF4AIf (Mus musculus, UniProt P60843); experiment: Crosslinking of oxidized 32P-cap labeled CAT mRNA to recombinant eIF4AIf (RNA binding); set-up: species or system murine; details: 50 μM
T1 construct: inferred only from the Ni-NTA purification; made in house; host or cells: Escherichia coli BL21 (DE3) codon+
T1 sequence (P60843 whole entry): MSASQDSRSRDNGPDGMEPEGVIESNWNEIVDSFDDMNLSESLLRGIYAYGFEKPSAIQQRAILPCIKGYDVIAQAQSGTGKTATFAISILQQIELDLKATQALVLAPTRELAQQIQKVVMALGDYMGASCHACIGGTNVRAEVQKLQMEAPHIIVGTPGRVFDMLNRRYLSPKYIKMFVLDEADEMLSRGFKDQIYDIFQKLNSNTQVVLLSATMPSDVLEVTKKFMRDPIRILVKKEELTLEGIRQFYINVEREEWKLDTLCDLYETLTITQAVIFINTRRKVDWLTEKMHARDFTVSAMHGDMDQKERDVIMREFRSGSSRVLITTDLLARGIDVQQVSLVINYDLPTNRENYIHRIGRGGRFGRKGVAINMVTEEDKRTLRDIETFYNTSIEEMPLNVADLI
Experimental: FIG. 7. Effects of hippuristanol on ATP hydrolysis, ATP binding, and RNA binding activities of eIF4A. A. Hippuristanol inhibits eIF4AIf RNA-dependent ATPase activity. The rate of ATP hydrolysis as a function of hippuristanol concentration is plotted relative to the rate obtained in the presence of vehicle (0.5% DMSO). ATP hydrolysis was measured in the presence of 2.5 μM poly (U) and monitored by thin layer chromatography. […] Samples were resolved by SDS-PAGE and subjected to autoradiography. C. The RNA binding activity of eIF4AIf is inhibited by hippuristanol. Oxidized ^32P-cap labeled CAT mRNA was incubated with recombinant eIF4AIf in the absence (lane 2) or presence of ATP (lanes 1, 3-6), 0.6 mM m^7GDP (lane 3), 0.6 mM GDP (lane 4), or 50 μM hippuristanol (lane 6). Following treatment with RNase A, samples were resolved by SDS-PAGE and subjected to autoradiography. The asterisk denotes the position of migration of a ˜30 kDa contaminant in the recombinant eIF4AIf preparation used as an internal loading reference. D. The RNA binding activity of eIF4Ac is inhibited by hippuristanol. Oxidized ^32P-cap labeled CAT mRNA was incubated with 0.7 μg of native eIF4F in the absence (lane 1) or presence (lane 2) of 50 μM hippuristanol. […]
Ribosome Binding and mRNA Crosslinking. […] Fractions of 500 μl were collected and radioactivity was determined by scintillation counting. […]

[2] = test system: in vitro splicing reactions; experiment: In vitro splicing of AdML pre-mRNA in nuclear extracts; assay type: biochemical; details: 2 μM, 10 μM and 50 μM
Experimental: FIG. 8. Selective inhibition of eIF4A activity by hippuristanol. A. Hippuristanol inhibits eIF4AIf-mediated helicase activity. Unwinding reactions were performed with RNA-1/RNA-11 duplex and recombinant eIF4AIf or Ded1p. The presence of 50 μM hippuristanol in the reaction is indicated above the panel. […] Double-stranded RNA duplex and single-stranded RNA molecules are schematically represented to the left of the panel. […] In vitro splicing reactions were performed with the AdML pre-mRNAs as previously described (48). AdML pre-mRNA was incubated with nuclear extracts in the presence of increasing amounts of hippuristanol (2 μM [lane4], 10 μM [lane 5] and 50 μM [lane 6]). Reaction products were resolved on 15% polyacrylamide/8M urea gels and subjected to autoradiography. The position of migration of the pre-mRNA and spliced product is denoted to the right. C. Rescue of hippuristanol-induced inhibition with recombinant eIF4AIf. […] A graphical representation from three experiments is provided below. Translational efficiency was calculated relative to luciferase values obtained from control translations containing vehicle (0.5% DMSO).

C[C@H]1C[C@@]2(O[C@H]3C[C@H]4[C@@H]5CC[C@H]6C[C@H](O)CC[C@]6(C)[C@H]5[C@@H](O)C[C@]4(C)[C@H]3[C@@]2(C)O)OC1(C)C [Hippuristanol, hippuristanol]
RNA binding activity of eIF4AIf [1]: inhibited
in vitro splicing reactions [2]: does not inhibit
